These results are taken from US20040110763A1, “Pyrazolopyridine compound and pharmaceutical use thereof” (priority 2000, published 2004).

By melting point is commonly meant the temperature, or range, at which the solid turns liquid. The compound `COc1cccc(CNC(=O)COc2ccn3nc(-c4ccccc4)c(-c4ccc(=O)n(C(C)C)n4)c3c2)c1` [Example 59, 2-{[3-(3-Oxo-2-isopropyl-2,3-dihydropyridazin-6-yl)-2-phenylpyrazolo[1,5-a]pyridin-5-yl]oxy}-N-(3-methoxybenzyl)acetamide] displayed a melting point of 166 to 167.5 °C.

Consider `COc1ccn2nc(-c3ccccc3)c(-c3ccc(=O)n([C@H]4CCOC4)n3)c2c1` [Example 120, 5-Methoxy-3-[3-oxo-2-((3S)-tetrahydrofuran-3-yl)-2,3-dihydropyridazin-6-yl]-2-phenylpyrazolo[1,5-a]pyridine], for which the melting point fell in the range of 194 to 195 °C.

Consider `COc1ccn2nc(-c3ccccc3)c(-c3ccc(=O)n(C4CCN(C)CC4)n3)c2c1` [Example 122, 5-methoxy-3-[3-oxo-2-(1-methylpiperidin-4-yl)-2,3-dihydropyridazin-6-yl]-2-phenylpyrazolo[1,5-a]pyridine], for which the melting point fell in the range of 154 to 155 °C. For `CC(C)n1nc(-c2c(-c3ccccc3)nn3ccc(OC4CCOCC4)cc23)ccc1=O` [Example 46, 5-(Tetrahydropyran-4-yl)oxy-3-(3-oxo-2-isopropyl-2,3-dihydropyridazin-6-yl)-2-phenylpyrazolo[1,5-a]pyridine], the melting point is 210.5 to 211 °C. The figure for `CC(C)n1nc(-c2c(-c3ccccc3)nn3ccc(C(=O)NC4CC4)cc23)ccc1=O` [Example 139, N-cyclopropyl-3-(3-oxo-2-isopropyl-2,3-dihydropyridazin-6-yl)-2-phenylpyrazolo[1,5-a]pyridine-5-carboxamide] is 184 to 185 °C. The figure for `CC(C)CNC(=O)COc1ccn2nc(-c3ccccc3)c(-c3ccc(=O)n(C(C)C)n3)c2c1` [Example 45, N-Isobutyl-2-{[3-(3-oxo-2-isopropyl-2,3-dihydropyridazin-6-yl)-2-phenylpyrazolo [1,5-a]pyridin-5-yl]oxy}acetamide] is 167.5 to 168.5 °C; for `COCC(C)n1nc(-c2c(-c3ccccc3)nn3ccc(OC)cc23)ccc1=O` (stereo not shown) [Example 121, 5-Methoxy-3-[3-oxo-2-(1-methoxy-2-propyl)-2,3-dihydropyridazin-6-yl]-2-phenylpyrazolo[1,5-a]pyridine] it is 138 to 139 °C; for `CC(=O)Nc1cccc(Oc2ccn3nc(-c4ccccc4)c(-c4ccc(=O)n(C(C)C)n4)c3c2)c1` [Example 36, N-(3-{[3-(3-oxo-2-isopropyl-2,3-dihydropyridazin-6-yl)-2-phenylpyrazolo[1,5-a]pyridin-5-yl]oxy}phenyl)acetamide] it is 177.5 to 178.5 °C.

In the case of `CC(C)n1nc(-c2c(-c3ccccc3)nn3ccc(OCC(=O)NC4CCCCC4)cc23)ccc1=O` [Example 63, N-Cyclohexyl-2-{[3-(3-oxo-2-isopropyl-2,3-dihydropyridazin-6-yl)-2-phenylpyrazolo[1,5-a]pyridin-5-yl]oxy}acetamide], the melting point is 170 to 171.5 °C.

`CC(C)n1nc(-c2c(-c3ccccc3)nn3ccc(OCCN4[C@H](C)COC[C@@H]4C)cc23)ccc1=O` [Example 18, 5-[2-{(3R,5S)-3,5-Dimethyl-4-morpholinyl}ethoxy]-3-(3-oxo-2-isopropyl-2,3-dihydropyridazin-6-yl)-2-phenylpyrazolo[1,5-a]pyridine] showed a melting point of 145 to 146 °C. The figure for `CC(C)n1nc(-c2c(-c3ccccc3)nn3ccc(C(=O)N4CCCC4)cc23)ccc1=O` [Example 73, 5-(1-pyrrolidinylcarbonyl)-3-(3-oxo-2-isopropyl-2,3-dihydropyridazin-6-yl)-2-phenylpyrazolo[1,5-a]pyridine] is 189 to 190 °C. Take `CC(C)n1nc(-c2c(-c3ccccc3)nn3ccc(OCC(=O)NCCN(C)C)cc23)ccc1=O` [Example 58, N-[2-(dimethylamino)ethyl]-2-{[3-(3-oxo-2-isopropyl-2,3-dihydropyridazin-6-yl)-2-phenylpyrazolo[1,5-a]pyridin-5-yl]oxy}acetamide]: the melting point lay in the range of 117 to 119 °C. `CC(C)n1nc(-c2c(-c3ccccc3)nn3ccc(N4CCN(S(C)(=O)=O)CC4)cc23)ccc1=O` [Example 110, 5-[4-(Methylsulfonyl)-1-piperazinyl]-3-(3-oxo-2-isopropyl-2,3-dihydropyridazin-6-yl)-2-phenylpyrazolo[1,5-a]pyridine] yielded a melting point of 219 to 220 °C. The figure for `CC(C)n1nc(-c2c(-c3ccccc3)nn3cccc(OCCN(C)C)c23)ccc1=O` [Example 198, 4-(2-(Dimethylamino)ethoxy)-3-(3-oxo-2-isopropyl-2,3-dihydropyridazin-6-yl)-2-phenylpyrazolo[1,5-a]pyridine] is 137 to 138 °C; for `Nc1cccc2c(-c3ccc(=O)[nH]n3)c(-c3ccccc3)nn12` [Example 133, 7-amino-3-(3-oxo-2,3-dihydropyridazin-6-yl)-2-phenylpyrazolo[1,5-a]pyridine] it is 157 to 159 °C; for `CC(C)n1nc(-c2c(-c3ccccc3)nn3ccc(N4CCCC4=O)cc23)ccc1=O` [Example 153, 5-(2-oxo-1-pyrrolidinyl)-3-(3-oxo-2-isopropyl-2,3-dihydropyridazin-6-yl)-2-phenylpyrazolo [1,5-a]pyridine] it is 266 to 267 °C. The figure for `CC(C)n1nc(-c2c(-c3ccccc3)nn3ccc(OCCCN(C)C)cc23)ccc1=O` [Example 15, 5-(3-Dimethylaminopropoxy)-3-(3-oxo-2-isopropyl-2,3-dihydropyridazin-6-yl)-2-phenylpyrazolo[1,5-a]pyridine] is 125 to 126 °C; for `COc1ccn2nc(-c3ccccc3F)c(-c3ccc(=O)n(C(C)C)n3)c2c1` [Example 127, 5-Methoxy-3-(3-oxo-2-isopropyl-2,3-dihydropyridazin-6-yl)-2-(2-fluorophenyl)pyrazolo[1,5-a]pyridine] it is 174 to 175 °C; for `CC(=O)Nc1cccc2c(-c3ccc(=O)n(C(C)C)n3)c(-c3ccccc3)nn12` [Example 187, 7-Acetylamino-3-(3-oxo-2-isopropyl-2,3-dihydropyridazin-6-yl)-2-phenylpyrazolo[1,5-a]pyridine] it is 92 to 96 °C. `CCCCNC(=O)COc1ccn2nc(-c3ccccc3)c(-c3ccc(=O)n(C(C)C)n3)c2c1` [Example 65, N-Butyl-2-{[3-(3-oxo-2-isopropyl-2,3-dihydropyridazin-6-yl)-2-phenylpyrazolo[1,5-a]pyridin-5-yl]oxy}acetamide] displayed a melting point of 151 to 152 °C. The figure for `CC(C)n1nc(-c2c(-c3ccccc3)nn3ccc(N4CCN(C(=O)N(C)C)CC4)cc23)ccc1=O` [Example 109, 4-[3-(3-oxo-2-isopropyl-2,3-dihydropyridazin-6-yl)-2-phenylpyrazolo[1,5-a]pyridin-5-yl]-N,N-dimethyl-1-piperazinecarboxamide] is 160 to 161 °C; for `CC(C)CCOc1ccn2nc(-c3ccccc3)c(-c3ccc(=O)n(C(C)C)n3)c2c1` [Example 22, 5-Isopentyloxy-3-(3-oxo-2-isopropyl-2,3-dihydropyridazin-6-yl)-2-phenylpyrazolo[1,5-a]pyridine] it is 163 to 163.5 °C; for `CC(C)n1nc(-c2c(-c3ccccc3)nn3ccc(NS(C)(=O)=O)cc23)ccc1=O` [Example 150, 5-Methylsulfonylamino-3-(3-oxo-2-isopropyl-2,3-dihydropyridazin-6-yl)-2-phenylpyrazolo[1,5-a]pyridine] it is 193 to 194 °C.

Compound `CC(C)n1nc(-c2c(-c3ccccc3)nn3ccc(C#N)cc23)ccc1=O` [Example 71, 3-(3-oxo-2-isopropyl-2,3-dihydropyridazin-6-yl)-2-phenylpyrazolo[1,5-a]pyridine-5-carbonitrile] displayed a melting point of 202 to 203 °C. The figure for `CC(C)n1nc(-c2c(-c3ccccc3)nn3ccc(OCC(=O)NC4CCCC4)cc23)ccc1=O` [Example 62, N-Cyclopentyl-2-{[3-(3-oxo-2-isopropyl-2,3-dihydropyridazin-6-yl)-2-phenylpyrazolo[1,5-a]pyridin-5-yl]oxy}acetamide] is 187 to 188 °C; for `COC(=O)c1ccn2nc(-c3ccccc3)c(-c3ccc(=O)n(C(C)C)n3)c2c1` [Example 69, methyl 3-(3-oxo-2-isopropyl-2,3-dihydropyridazin-6-yl)-2-phenylpyrazolo[1,5-a]pyridine-5-carboxylate] it is 186 to 187 °C; for `CC(C)n1nc(-c2c(-c3ccccc3)nn3ccc(N4C[C@@H](C)O[C@@H](C)C4)cc23)ccc1=O` [Example 100, 5-(cis-2,6-Dimethyl-4-morpholinyl)-3-(3-oxo-2-isopropyl-2,3-dihydropyridazin-6-yl)-2-phenylpyrazolo[1,5-a]-pyridine] it is 176 to 177 °C. On to `CC(C)n1nc(-c2c(-c3ccccc3)nn3ccc(Oc4ccc([N+](=O)[O-])cn4)cc23)ccc1=O` [Example 48, 5-[(5-Nitro-2-pyridinyl)oxy]-3-(3-oxo-2-isopropyl-2,3-dihydropyridazin-6-yl)-2-phenylpyrazolo[1,5-a]pyridine], for which the melting point was 182 to 183.5 °C.

In turn, `CC(C)n1nc(-c2c(-c3ccccc3)nn3ccc(N4CCN(C(=O)OC(C)(C)C)CC4)cc23)ccc1=O` [Example 104, tert-Butyl 4-[3-(3-oxo-2-isopropyl-2,3-dihydropyridazin-6-yl)-2-phenylpyrazolo[1,5-a]pyridin-5-yl]-1-piperazinecarboxylate] came in with a melting point of 163 to 164 °C. The figure for `CC(C)n1nc(-c2c(-c3ccccc3)nn3ccc(N4CCN(S(=O)(=O)c5ccccc5)CC4)cc23)ccc1=O` [Example 111, 5-[4-(Phenylsulfonyl)-1-piperazinyl]-3-(3-oxo-2-isopropyl-2,3-dihydropyridazin-6-yl)-2-phenylpyrazolo[1,5-a]pyridine] is 219 to 220 °C. The figure for `CC(C)n1nc(-c2c(-c3ccccc3)nn3ccc(N4CCC(O)CC4)cc23)ccc1=O` [Example 101, 5-(4-Hydroxy-1-piperidinyl)-3-(3-oxo-2-isopropyl-2,3-dihydropyridazin-6-yl)-2-phenylpyrazolo[1,5-a]pyridine] is 213 to 215 °C.
